Assay results from patent US20200281923A1, “USE OF PARP INHIBITOR IN TREATING CHEMOTHERAPY-RESISTANT OVARIAN CANCER OR BREAST CANCER” (JIANGSU HENGRUI MEDICINE CO., LTD., priority 2017, published 2020).

Key:
[1] = tested on: advanced prostate cancer; conditions: advanced prostate cancer patients with DNA repair gene mutations; phase II clinical trial; cited from earlier work
[2] = tested on: recurrent ovarian cancer; assay: Phase I clinical trial of compound A alone in recurrent chemotherapy-resistant ovarian cancer; assay type: in vivo, human; conditions: daily dose of 120 mg
Description: Objective response rate (ORR) refers to the proportion of patients whose tumor shrinks to a certain extent and remains for a certain period of time, including cases of CR and PR. The response evaluation criteria in solid tumors (RECIST 1.1 criteria) are employed to assess tumor objective response. The subject must have measurable tumor lesions at baseline. The efficacy assessment criteria are classified into complete response (CR), partial response (PR), stable disease (SD), and progressive disease (PD) according to the RECIST 1.1 criteria.
Disease control rate (DCR) refers to the percentage of confirmed cases of complete response, partial response and stable disease (≥eight weeks) in patients with evaluable efficacy.
In the phase I clinical trial, the dose of compound A was 120 mg/d and above. 23 patients with recurrent ovarian cancer diagnosed by histology or cytology, who had received standard treatment failure, were enrolled. These patients had been subjected to at least second-line systemic chemotherapy during the recurrence and metastasis stage of ovarian cancer. The chemotherapy regimen was a platinum-based chemotherapy regimen. These patients were platinum-based treatment-resistant, or were intolerant to the chemotherapy toxicity during the treatment.
Compound A: the initial dose was 10 mg, 20 mg, 40 mg, 60 mg, 80 mg, 100 mg or 150 mg, administrated orally twice a day; or 120 mg or 160 mg, administrated orally once a day.

[3] = platinum-resistant ovarian cancer without BRCA mutations, 13 cases
[4] = recurrent platinum-resistant ovarian cancer, 22 evaluable cases out of 23

SMILES	response [1] [%]	disease control rate (DCR) [2, 3] [%]	objective response rate (ORR) [2, 3] [%]	disease control rate (DCR) [2, 4] [%]	objective response rate (ORR) [2, 4] [%]
O=C(c1cc(Cc2n[nH]c(=O)c3ccccc23)ccc1F)N1CCN(C(=O)C2CC2)CC1 [Olaparib]	88				
O=C(c1cc(Cc2n[nH]c(=O)c3ccccc23)ccc1F)N1CCn2nc(C(F)(F)F)nc2C1 [compound A]		84.6	15.4	81.8	18.2
